Source: patent EP0252525B1, “Alpha-amylase assay using modified oligosaccharide and process for producing said modified oligosaccharide” (WAKO PURE CHEMICAL INDUSTRIES, LTD, priority 1986, dated 1988)
Values joined by “and” are separate entries in the source; they are usually repeats but may differ in a detail not shown here. Equal entries are not always repeated.

What was measured:
Format in all cases: biochemical
[1] = biological target: T1, human pancreatic α-amylase (HPA) (Homo sapiens, UniProt P04746); assay: Hydrolysis rate of substrates by α-amylase (relative to G5P); conditions: substrate 1.0 mM, pH 7, value of G5P taken as 1
T1 sequence (P04746 16-511): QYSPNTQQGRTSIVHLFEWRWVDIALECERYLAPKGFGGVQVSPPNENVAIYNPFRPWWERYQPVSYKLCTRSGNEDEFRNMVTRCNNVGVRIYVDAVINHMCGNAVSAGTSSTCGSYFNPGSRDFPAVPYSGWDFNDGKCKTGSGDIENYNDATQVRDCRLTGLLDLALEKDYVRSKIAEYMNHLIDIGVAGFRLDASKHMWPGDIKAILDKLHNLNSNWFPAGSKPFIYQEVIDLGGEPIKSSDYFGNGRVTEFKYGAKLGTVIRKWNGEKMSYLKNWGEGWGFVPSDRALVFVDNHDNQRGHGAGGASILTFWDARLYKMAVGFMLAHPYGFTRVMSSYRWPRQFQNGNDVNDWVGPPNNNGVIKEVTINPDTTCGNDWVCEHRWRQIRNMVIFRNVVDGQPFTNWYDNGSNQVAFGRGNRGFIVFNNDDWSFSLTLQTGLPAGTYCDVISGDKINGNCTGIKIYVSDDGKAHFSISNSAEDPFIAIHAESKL
Procedure: (§1) The above-mentioned advantages can be shown by using the following oligosaccharides: [drawing 6] n = 2: BG4P n = 3: BG5P (the present invention) n = 4: BG6P n = 5: BG7P [drawing 7] n = 2: G4P n = 3: G5P (standard) n = 4: G6P n = 5: G7P [drawing 8] n = 2: BDG4P n = 3: BDG5P n = 4: BDG6P n = 5: BDG7P The hydrolysis rate is measured by using human pancreatic α-amylase (HPA) or human salivary α-amylase (HSA) for each substrate (1.0 mM) at pH 7, and evaluating by means of relative values by taking the value of G5P as 1.

[2] = biological target: T2, human salivary α-amylase (HSA) (Homo sapiens, UniProt P0DUB6); assay: as above; conditions: substrate 1.0 mM, pH 7, value of G5P taken as 1
T2 sequence (P0DUB6 16-511): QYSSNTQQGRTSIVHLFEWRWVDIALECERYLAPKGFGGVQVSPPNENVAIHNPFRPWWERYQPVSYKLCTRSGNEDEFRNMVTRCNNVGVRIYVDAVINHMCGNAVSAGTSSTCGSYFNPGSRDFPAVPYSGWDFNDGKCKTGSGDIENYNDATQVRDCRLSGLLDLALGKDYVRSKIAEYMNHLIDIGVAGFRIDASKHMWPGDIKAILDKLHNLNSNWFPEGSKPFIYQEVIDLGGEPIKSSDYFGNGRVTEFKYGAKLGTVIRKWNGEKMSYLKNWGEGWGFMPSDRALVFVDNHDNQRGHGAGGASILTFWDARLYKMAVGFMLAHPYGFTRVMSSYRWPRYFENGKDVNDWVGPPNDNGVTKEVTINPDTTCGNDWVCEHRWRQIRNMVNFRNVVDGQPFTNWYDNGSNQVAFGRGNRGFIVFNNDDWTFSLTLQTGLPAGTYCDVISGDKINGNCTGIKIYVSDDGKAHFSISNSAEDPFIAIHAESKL
Procedure: as §1

HPA [3] = biological target: T3, HPA (Homo sapiens, UniProt P04746); assay: Binding mode (distribution of hydrolysis products) by HPLC; conditions: for Hydrolysis product G2P: share of product G2P; for Hydrolysis product G3P: share of product G3P; for Hydrolysis product G4P: share of product G4P; for Hydrolysis product GP: share of product GP
T3 sequence (P04746 16-511): T1 sequence (P04746 16-511)
Procedure: (§2) The binding mode of each substrate were measured with high-performance liquid chromatography (HPLC) as described above.

HSA = biological target: T4, HSA (Homo sapiens, UniProt P0DUB6); assay: as above; conditions: for Hydrolysis product G2P: share of product G2P; for Hydrolysis product G3P: share of product G3P; for Hydrolysis product G4P: share of product G4P; for Hydrolysis product GP: share of product GP
T4 sequence (P0DUB6 16-511): T2 sequence (P0DUB6 16-511)
Procedure: as §2

HPA [4] = biological target: T3, HPA; assay: Km determination (Lineweaver-Burk plot, products measured by HPLC); conditions: 50 mM BES/NaOH buffer pH 7.6, 37°C, 5 min
Procedure: The amounts of the products were measured with HPLC.

| Structure (SMILES) | hydrolysis rate (relative value) [1] | hydrolysis rate (relative value) [2] | Hydrolysis product G2P (HPA [3]) [%] | Hydrolysis product G3P (HPA [3]) [%] | Hydrolysis product G4P (HPA [3]) [%] | Hydrolysis product GP (HPA [3]) [%] | Hydrolysis product G2P (HSA) [%] | Hydrolysis product G3P (HSA) [%] | Hydrolysis product G4P (HSA) [%] | Hydrolysis product GP (HSA) [%] | Km (HPA [4]) | Hydrolysis product (result in words) (HPA [3]) | Hydrolysis product (result in words) (HSA) |
| --- | --- | --- | --- | --- | --- | --- | --- | --- | --- | --- | --- | --- | --- |
| O=[N+]([O-])c1ccc(O[C@H]2O[C@H](CO)[C@@H](O[C@H]3O[C@H](CO)[C@@H](O[C@H]4O[C@H](CO)[C@@H](O[C@H]5O[C@H](COCc6ccccc6)[C@@H](O)[C@H](O)[C@H]5O)[C@H](O)[C@H]4O)[C@H](O)[C@H]3O)[C@H](O)[C@H]2O)cc1 [BG4P] | 0.55 | 0.60 | 8 | 0 | 0 | 92 | 10 | 0 | 0 | 90 |  |  |  |
| O=[N+]([O-])c1ccc(O[C@H]2O[C@H](CO)[C@@H](O[C@H]3O[C@H](CO)[C@@H](O[C@H]4O[C@H](CO)[C@@H](O[C@H]5O[C@H](CO)[C@@H](O)[C@H](O)[C@H]5O)[C@H](O)[C@H]4O)[C@H](O)[C@H]3O)[C@H](O)[C@H]2O)cc1 [Substrate G4P] | 0.70 | 0.75 | 55 | 0 | 0 | 45 | 74 | 0 | 0 | 26 |  |  |  |
| O=[N+]([O-])c1ccc(O[C@H]2O[C@H](CO)[C@@H](O[C@H]3O[C@H](CO)[C@@H](O[C@H]4O[C@H](CO)[C@@H](O[C@H]5O[C@H](CO)[C@@H](O[C@H]6O[C@H](CO)[C@@H](O)[C@H](O)[C@H]6O)[C@H](O)[C@H]5O)[C@H](O)[C@H]4O)[C@H](O)[C@H]3O)[C@H](O)[C@H]2O)cc1 [Substrate G5P] | 1.0 | 1.0 | 73 | 12 | 0 | 15 | 83 | 11 | 0 | 6 | 360 µM and 358 µM |  |  |
| O=[N+]([O-])c1ccc(O[C@H]2O[C@H](CO)[C@@H](O[C@H]3O[C@H](CO)[C@@H](O[C@H]4O[C@H](CO)[C@@H](O[C@H]5O[C@H](CO)[C@@H](O[C@H]6O[C@H](CO)[C@@H](O[C@H]7O[C@H](CO)[C@@H](O[C@H]8O[C@H](CO)[C@@H](O)[C@H](O)[C@H]8O)[C@H](O)[C@H]7O)[C@H](O)[C@H]6O)[C@H](O)[C@H]5O)[C@H](O)[C@H]4O)[C@H](O)[C@H]3O)[C@H](O)[C@H]2O)cc1 [Substrate G7P] | 1.8 | 1.8 | 14 | 30 | 55 | 1 | 8 | 30 | 60 | 2 |  |  |  |
| O=[N+]([O-])c1ccc(O[C@H]2O[C@H](CO)[C@@H](O[C@H]3O[C@H](CO)[C@@H](O[C@H]4O[C@H](CO)[C@@H](O[C@H]5O[C@H](CO)[C@@H](O[C@H]6O[C@H](CO)[C@@H](O[C@H]7O[C@@H]8COC(c9ccccc9)O[C@H]8[C@H](O)[C@H]7O)[C@H](O)[C@H]6O)[C@H](O)[C@H]5O)[C@H](O)[C@H]4O)[C@H](O)[C@H]3O)[C@H](O)[C@H]2O)cc1 (some centres unmarked) [BDG6P] | 0.4 | 0.5 | 73 | 12 | 0 | 15 | 66 | 10 | 0 | 24 |  |  |  |
| O=[N+]([O-])c1ccc(O[C@H]2O[C@H](CO)[C@@H](O[C@H]3O[C@H](CO)[C@@H](O[C@H]4O[C@H](CO)[C@@H](O[C@H]5O[C@H](CO)[C@@H](O[C@H]6O[C@@H]7COC(c8ccccc8)O[C@H]7[C@H](O)[C@H]6O)[C@H](O)[C@H]5O)[C@H](O)[C@H]4O)[C@H](O)[C@H]3O)[C@H](O)[C@H]2O)cc1 (some centres unmarked) [BDG5P] | 0 | 0 |  |  |  |  |  |  |  |  |  | Not hydrolyzed | Not hydrolyzed |
| O=[N+]([O-])c1ccc(O[C@H]2O[C@H](CO)[C@@H](O[C@H]3O[C@H](CO)[C@@H](O[C@H]4O[C@H](CO)[C@@H](O[C@H]5O[C@H](CO)[C@@H](O[C@H]6O[C@H](CO)[C@@H](O[C@H]7O[C@H](COCc8ccccc8)[C@@H](O)[C@H](O)[C@H]7O)[C@H](O)[C@H]6O)[C@H](O)[C@H]5O)[C@H](O)[C@H]4O)[C@H](O)[C@H]3O)[C@H](O)[C@H]2O)cc1 [BG6P] | 1.4 | 1.4 | 23 | 73 | 0 | 4 | 29 | 68 | 0 | 3 |  |  |  |
| O=[N+]([O-])c1ccc(O[C@H]2O[C@H](CO)[C@@H](O[C@H]3O[C@H](CO)[C@@H](O[C@H]4O[C@H](CO)[C@@H](O[C@H]5O[C@H](CO)[C@@H](O[C@H]6O[C@H](CO)[C@@H](O[C@H]7O[C@H](CO)[C@@H](O)[C@H](O)[C@H]7O)[C@H](O)[C@H]6O)[C@H](O)[C@H]5O)[C@H](O)[C@H]4O)[C@H](O)[C@H]3O)[C@H](O)[C@H]2O)cc1 [Substrate G6P] | 1.7 | 1.7 | 22 | 76 | 0 | 2 | 40 | 53 | 0 | 7 |  |  |  |
| O=[N+]([O-])c1ccc(O[C@H]2O[C@H](CO)[C@@H](O[C@H]3O[C@H](CO)[C@@H](O[C@H]4O[C@H](CO)[C@@H](O[C@H]5O[C@H](CO)[C@@H](O[C@H]6O[C@H](CO)[C@@H](O[C@H]7O[C@H](CO)[C@@H](O[C@H]8O[C@H](COCc9ccccc9)[C@@H](O)[C@H](O)[C@H]8O)[C@H](O)[C@H]7O)[C@H](O)[C@H]6O)[C@H](O)[C@H]5O)[C@H](O)[C@H]4O)[C@H](O)[C@H]3O)[C@H](O)[C@H]2O)cc1 [BG7P] | 1.5 | 1.5 | 20 | 38 | 40 | 2 | 15 | 38 | 45 | 2 |  |  |  |
| O=[N+]([O-])c1ccc(O[C@H]2O[C@H](CO)[C@@H](O[C@H]3O[C@H](CO)[C@@H](O[C@H]4O[C@H](CO)[C@@H](O[C@H]5O[C@@H]6COC(c7ccccc7)O[C@H]6[C@H](O)[C@H]5O)[C@H](O)[C@H]4O)[C@H](O)[C@H]3O)[C@H](O)[C@H]2O)cc1 (some centres unmarked) [BDG4P] | 0 | 0 |  |  |  |  |  |  |  |  |  | Not hydrolyzed | Not hydrolyzed |
